# Data reported in patent publication US8735398B2 (Bristol-Myers Squibb Company, priority 2009, dated 2014).
# Test system: HCV 1b genotype
# Experiment: HCV replicon assay (HCV-neo replicon cells, wild-type)
# Format: cell-based, Hepatitis C virus
# Details: Hepatitis C virus, HCV 1b genotype replicon; class symbol; read-out: EC50 Range against HCV 1b
# Method in brief: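 Inhibition was tested in replicon-bearing cells, both wild-type HCV-neo and lines with NS5A resistance substitutions, using the O'Boyle et al. 2005 replicon method or luciferase-reporter formats.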
row,Compound,EC50
1,"O=C(Nc1ccc(-c2cnc(-c3ccc(NC(=O)[C@@H]4CCCN4C(=O)[C@@H](O)c4ccccc4)cc3)o2)cc1)[C@@H]1CCCN1C(=O)[C@@H](O)c1ccccc1 [JG-20, (2S,2′S)-N,N′-(1,3-oxazole-2,5-diyldi-4,1-phenylene)bis(1-((2S)-2-hydroxy-2-phenylacetyl)-2-pyrrolidinecarboxamide)]",4.57 to 99 nM
2,"CC(O)(C(=O)N1CCC[C@H]1C(=O)Nc1ccc(-c2ncc(-c3ccc(NC(=O)[C@@H]4CCCN4C(=O)[C@@](C)(O)c4ccccc4)cc3)o2)cc1)c1ccccc1 (stereo partly drawn) [JG-22, (2S)-1-((2S)-2-hydroxy-2-phenylpropanoyl)-N-(4-(2-(4-((((2S)-1-(2-hydroxy-2-phenylpropanoyl)-2-pyrrolidinyl)carbonyl)amino)phenyl)-1,3-oxazol-5-yl)phenyl)-2-pyrrolidinecarboxamide]",< 4.57 nM
3,"O=C(Nc1ccc(-c2cnc(-c3ccc(NC(=O)[C@@H]4CCCN4C(=O)[C@H](O)c4ccccc4)cc3)o2)cc1)[C@@H]1CCCN1C(=O)[C@H](O)c1ccccc1 [JG-23, (2S,2′S)-N,N′-(1,3-oxazole-2,5-diyldi-4,1-phenylene)bis(1-((2R)-2-hydroxy-2-phenylacetyl)-2-pyrrolidinecarboxamide)]",< 4.57 nM
4,"CO[C@@H](C(=O)N1CCC[C@H]1C(=O)Nc1ccc(-c2cnc(-c3ccc(NC(=O)[C@@H]4CCCN4C(=O)[C@H](OC)c4ccccc4)cc3)o2)cc1)c1ccccc1 [JG-25, (2S,2′S)-N,N′-(1,3-oxazole-2,5-diyldi-4,1-phenylene)bis(1-((2R)-2-methoxy-2-phenylacetyl)-2-pyrrolidinecarboxamide)]",4.57 to 99 nM
5,"O=C(Nc1ccc(-c2cnc(-c3ccc(NC(=O)[C@@H]4CCCN4C(=O)[C@H](O)c4ccccc4Cl)cc3)o2)cc1)[C@@H]1CCCN1C(=O)[C@H](O)c1ccccc1Cl [JG-26, (2S,2′S)-N,N′-(1,3-oxazole-2,5-diyldi-4,1-phenylene)bis(1-((2R)-2-(2-chlorophenyl)-2-hydroxyacetyl)-2-pyrrolidinecarboxamide)]",< 4.57 nM
6,"O=C(C(=O)N1CCC[C@H]1C(=O)Nc1ccc(-c2cnc(-c3ccc(NC(=O)[C@@H]4CCCN4C(=O)C(=O)c4ccccc4)cc3)o2)cc1)c1ccccc1 [JG-27, (2S,2′S)-N,N′-(1,3-oxazole-2,5-diyldi-4,1-phenylene)bis(1-(oxo(phenyl)acetyl)-2-pyrrolidinecarboxamide)]",4.57 to 99 nM
7,"O=C(Nc1ccc(-c2cnc(-c3ccc(NC(=O)[C@@H]4CCCN4C(=O)c4cc5ccccc5o4)cc3)o2)cc1)[C@@H]1CCCN1C(=O)c1cc2ccccc2o1 [JG-28, (2S,2′S)-N,N′-(1,3-oxazole-2,5-diyldi-4,1-phenylene)bis(1-(1-benzofuran-2-ylcarbonyl)-2-pyrrolidinecarboxamide)]",100 to 999 nM
8,"O=C(Nc1ccc(-c2cnc(-c3ccc(NC(=O)[C@@H]4CCCN4C(=O)c4nc5ccccc5s4)cc3)o2)cc1)[C@@H]1CCCN1C(=O)c1nc2ccccc2s1 [JG-29, (2S,2′S)-N,N′-(1,3-oxazole-2,5-diyldi-4,1-phenylene)bis(1-(1,3-benzothiazol-2-ylcarbonyl)-2-pyrrolidinecarboxamide)]",100 to 999 nM
9,"O=C(Nc1ccc(-c2cnc(-c3ccc(NC(=O)[C@@H]4CCCN4C(=O)c4onc5ccccc45)cc3)o2)cc1)[C@@H]1CCCN1C(=O)c1onc2ccccc12 [JG-30, (2S,2′S)-N,N′-(1,3-oxazole-2,5-diyldi-4,1-phenylene)bis(1-(2,1-benzisoxazol-3-ylcarbonyl)-2-pyrrolidinecarboxamide)]",4.57 to 99 nM
10,"O=C(C(=O)N1CCC[C@H]1C(=O)Nc1ccc(-c2cc(-c3ccc(NC(=O)[C@@H]4CCCN4C(=O)C(=O)c4ccccc4)cc3)[nH]n2)cc1)c1ccccc1 [JG-31, (2S,2′S)-N,N′-(1H-pyrazole-3,5-diyldi-4,1-phenylene)bis(1-(oxo(phenyl)acetyl)-2-pyrrolidinecarboxamide)]",4.57 to 99 nM
11,"O=C(Nc1ccc(-c2cc(-c3ccc(NC(=O)[C@@H]4CCCN4C(=O)[C@H](O)c4ccccc4)cc3)[nH]n2)cc1)[C@@H]1CCCN1C(=O)[C@H](O)c1ccccc1 [JG-32, (2S,2′S)-N,N′-(1H-pyrazole-3,5-diyldi-4,1-phenylene)bis(1-((2R)-2-hydroxy-2-phenylacetyl)-2-pyrrolidinecarboxamide)]",< 4.57 nM
12,"O=C(Nc1ccc(-c2cc(-c3ccc(NC(=O)[C@@H]4CCCN4C(=O)[C@@H](O)c4ccccc4)cc3)[nH]n2)cc1)[C@@H]1CCCN1C(=O)[C@@H](O)c1ccccc1 [JG-33, (2S,2′S)-N,N′-(1H-pyrazole-3,5-diyldi-4,1-phenylene)bis(1-((2S)-2-hydroxy-2-phenylacetyl)-2-pyrrolidinecarboxamide)]",4.57 to 99 nM
13,"O=C(Nc1ccc(-c2cc(-c3ccc(NC(=O)[C@@H]4CCCN4C(=O)[C@H](O)c4ccccc4Cl)cc3)[nH]n2)cc1)[C@@H]1CCCN1C(=O)[C@H](O)c1ccccc1Cl [JG-36, (2S,2′S)-N,N′-(1H-pyrazole-3,5-diyldi-4,1-phenylene)bis(1-((2R)-2-(2-chlorophenyl)-2-hydroxyacetyl)-2-pyrrolidinecarboxamide)]",< 4.57 nM
14,"CO[C@@H](C(=O)N1CCC[C@H]1C(=O)Nc1ccc(-c2cc(-c3ccc(NC(=O)[C@@H]4CCCN4C(=O)[C@H](OC)c4ccccc4)cc3)[nH]n2)cc1)c1ccccc1 [JG-37, (2S,2′S)-N,N′-(1H-pyrazole-3,5-diyldi-4,1-phenylene)bis(1-((2R)-2-methoxy-2-phenylacetyl)-2-pyrrolidinecarboxamide)]",< 4.57 nM
15,"CO[C@H](C(=O)N1CCC[C@H]1C(=O)Nc1ccc(-c2cc(-c3ccc(NC(=O)[C@@H]4CCCN4C(=O)[C@@H](OC)c4ccccc4)cc3)[nH]n2)cc1)c1ccccc1 [JG-38, (2S,2′S)-N,N′-(1H-pyrazole-3,5-diyldi-4,1-phenylene)bis(1-((2S)-2-methoxy-2-phenylacetyl)-2-pyrrolidinecarboxamide)]",< 4.57 nM
16,"C[C@@](O)(C(=O)N1CCC[C@H]1C(=O)Nc1ccc(-c2cc(-c3ccc(NC(=O)[C@@H]4CCCN4C(=O)[C@@](C)(O)c4ccccc4)cc3)[nH]n2)cc1)c1ccccc1 [JG-39, (2S,2′S)-N,N′-(1H-pyrazole-3,5-diyldi-4,1-phenylene)bis(1-((2S)-2-hydroxy-2-phenylpropanoyl)-2-pyrrolidinecarboxamide)]",< 4.57 nM
17,"O=C(Nc1ccc(-c2cc(-c3ccc(NC(=O)[C@@H]4CCCN4C(=O)c4cc5ccccc5o4)cc3)[nH]n2)cc1)[C@@H]1CCCN1C(=O)c1cc2ccccc2o1 [JG-40, (2S,2′S)-N,N′-(1H-pyrazole-3,5-diyldi-4,1-phenylene)bis(1-(1-benzofuran-2-ylcarbonyl)-2-pyrrolidinecarboxamide)]",100 to 999 nM
18,"O=C(Nc1ccc(-c2cc(-c3ccc(NC(=O)[C@@H]4CCCN4C(=O)c4nc5ccccc5s4)cc3)[nH]n2)cc1)[C@@H]1CCCN1C(=O)c1nc2ccccc2s1 [JG-41, (2S,2′S)-N,N′-(1H-pyrazole-3,5-diyldi-4,1-phenylene)bis(1-(1,3-benzothiazol-2-ylcarbonyl)-2-pyrrolidinecarboxamide)]",100 to 999 nM
19,"O=C(C(=O)N1CCC[C@H]1C(=O)Nc1ccc(-c2nc[nH]c2-c2ccc(NC(=O)[C@@H]3CCCN3C(=O)C(=O)c3ccccc3)cc2)cc1)c1ccccc1 [JG-42, (2S,2′S)-N,N′-(1H-imidazole-4,5-diyldi-4,1-phenylene)bis(1-(oxo(phenyl)acetyl)-2-pyrrolidinecarboxamide)]",< 4.57 nM
20,"O=C(Nc1ccc(-c2nc[nH]c2-c2ccc(NC(=O)[C@@H]3CCCN3C(=O)[C@H](O)c3ccccc3)cc2)cc1)[C@@H]1CCCN1C(=O)[C@H](O)c1ccccc1 [JG-43, (2S,2′S)-N,N′-(1H-imidazole-4,5-diyldi-4,1-phenylene)bis(1-((2R)-2-hydroxy-2-phenylacetyl)-2-pyrrolidinecarboxamide)]",< 4.57 nM
21,"O=C(Nc1ccc(-c2nc[nH]c2-c2ccc(NC(=O)[C@@H]3CCCN3C(=O)[C@@H](O)c3ccccc3)cc2)cc1)[C@@H]1CCCN1C(=O)[C@@H](O)c1ccccc1 [JG-44, (2S,2′S)-N,N′-(1H-imidazole-4,5-diyldi-4,1-phenylene)bis(1-((2S)-2-hydroxy-2-phenylacetyl)-2-pyrrolidinecarboxamide)]",100 to 999 nM
22,"CO[C@H](C(=O)N1CCC[C@H]1C(=O)Nc1ccc(-c2nc[nH]c2-c2ccc(NC(=O)[C@@H]3CCCN3C(=O)[C@@H](OC)c3ccccc3)cc2)cc1)c1ccccc1 [JG-45, (2S,2′S)-N,N′-(1H-imidazole-4,5-diyldi-4,1-phenylene)bis(1-((2S)-2-methoxy-2-phenylacetyl)-2-pyrrolidinecarboxamide)]",4.57 to 99 nM
23,"C[C@@](O)(C(=O)N1CCC[C@H]1C(=O)Nc1ccc(-c2nc[nH]c2-c2ccc(NC(=O)[C@@H]3CCCN3C(=O)[C@@](C)(O)c3ccccc3)cc2)cc1)c1ccccc1 [JG-46, (2S,2′S)-N,N′-(1H-imidazole-4,5-diyldi-4,1-phenylene)bis(1-((2S)-2-hydroxy-2-phenylpropanoyl)-2-pyrrolidinecarboxamide)]",< 4.57 nM
24,"C[C@](O)(C(=O)N1CCC[C@H]1C(=O)Nc1ccc(-c2nc[nH]c2-c2ccc(NC(=O)[C@@H]3CCCN3C(=O)[C@](C)(O)c3ccccc3)cc2)cc1)c1ccccc1 [JG-47, (2S,2′S)-N,N′-(1H-imidazole-4,5-diyldi-4,1-phenylene)bis(1-((2R)-2-hydroxy-2-phenylpropanoyl)-2-pyrrolidinecarboxamide)]",4.57 to 99 nM
25,"O=C(Nc1ccc(-c2nc[nH]c2-c2ccc(NC(=O)[C@@H]3CCCN3C(=O)c3nccc4ccccc34)cc2)cc1)[C@@H]1CCCN1C(=O)c1nccc2ccccc12 [JG-48, (2S,2′S)-N,N′-(1H-imidazole-4,5-diyldi-4,1-phenylene)bis(1-(1-isoquinolinylcarbonyl)-2-pyrrolidinecarboxamide)]",1000 to 10000 nM
26,"O=C(Nc1ccc(-c2nc[nH]c2-c2ccc(NC(=O)[C@@H]3CCCN3C(=O)c3nc(Cl)cc4ccccc34)cc2)cc1)[C@@H]1CCCN1C(=O)c1nc(Cl)cc2ccccc12 [JG-49, (2S,2′S)-N,N′-(1H-imidazole-4,5-diyldi-4,1-phenylene)bis(1-((3-chloro-1-isoquinolinyl)carbonyl)-2-pyrrolidinecarboxamide)]",1000 to 10000 nM

# Same assay, conditions: Hepatitis C virus, HCV 1b genotype replicon; read-out: EC50 1b
row,Compound,EC50
1,"CC(O)(C(=O)N1CCC[C@H]1C(=O)Nc1ccc(-c2ncc(-c3ccc(NC(=O)[C@@H]4CCCN4C(=O)[C@@](C)(O)c4ccccc4)cc3)o2)cc1)c1ccccc1 (stereo partly drawn) [JG-22, (2S)-1-((2S)-2-hydroxy-2-phenylpropanoyl)-N-(4-(2-(4-((((2S)-1-(2-hydroxy-2-phenylpropanoyl)-2-pyrrolidinyl)carbonyl)amino)phenyl)-1,3-oxazol-5-yl)phenyl)-2-pyrrolidinecarboxamide]",< 5 nM
2,"C[C@@](O)(C(=O)N1CCC[C@H]1C(=O)Nc1ccc(-c2cc(-c3ccc(NC(=O)[C@@H]4CCCN4C(=O)[C@@](C)(O)c4ccccc4)cc3)[nH]n2)cc1)c1ccccc1 [JG-39, (2S,2′S)-N,N′-(1H-pyrazole-3,5-diyldi-4,1-phenylene)bis(1-((2S)-2-hydroxy-2-phenylpropanoyl)-2-pyrrolidinecarboxamide)]",< 5 nM
3,"O=C(Nc1ccc(-c2nc[nH]c2-c2ccc(NC(=O)[C@@H]3CCCN3C(=O)c3nccc4ccccc34)cc2)cc1)[C@@H]1CCCN1C(=O)c1nccc2ccccc12 [JG-48, (2S,2′S)-N,N′-(1H-imidazole-4,5-diyldi-4,1-phenylene)bis(1-(1-isoquinolinylcarbonyl)-2-pyrrolidinecarboxamide)]",2340 nM
